The experiment concerns HIV. Briefly: Assay for inhibitory activity against HIV (p24 ELISA, infected MT-4 cells). Type of experiment: cell-based. The settings on record: Human immunodeficiency virus 1, MT4; MT-4 cells infected with pNL4-3-derived HIV; p24 ELISA after 48 + 48 hrs; read-out: Conc. for Inhibition of HIV Activity (IC50). The procedure: The rhodanine derivatives of the present invention were assayed for inhibitory activity against HIV as follows.
A pNL4-3 vector carrying an HIV genome was transduced into 293FT cells. […] 293FT cells were seeded at a density of 3.0×10^5 cells/well into 6-well plates containing antibiotic-free DMEM supplemented with 10% FBS and grown for 48 hrs. Upon 90-95% confluency, the transduction was performed.
The DNA (pNL4-3) was added at a final concentration of 10 ng/mL to 250 μL of the reduced serum medium Opti-MEM I (GIBCO™, USA). Separately, 4 μL of Lipofectamine™ 2000 (Invitrogen, USA) was mixed with 250 μL of Opti-MEM I (GIBCO™), and incubated at room temperature for 5 min. The DNA (pNL4-3) was mixed at a ratio of 1:2 with the lipofectamine and reacted at room temperature for 20 min to form a DNA-lipofectamine complex. After removal of the medium from the cell culture, the mixture containing the DNA-lipofectamine complex was added to the cells and incubated for 4 hrs in a CO2 incubator. Then, the cell culture medium was replaced with a fresh antibiotic-free, 10% FBS-supplemented DMEM, followed by incubation for an additional 48 hrs. The HIV-infected cell culture was centrifuged at 1,500 rpm for 5 min to give a virus supernatant.
MT-4 cells were plated at a density of 1.0×10^6 cells/mL into 6-well plates containing RPMI supplemented with 10% FBS and incubated for 4 hrs before infection at a ratio of 1:1 with the virus supernatant. The cells were incubated for 48 hrs in a CO2 incubator, after which the culture medium was replaced with a fresh one. Again, incubation was continued for an additional 72 hrs to amplify the virus. After centrifugation at 1,500 rpm for 5 min, the virus supernatant thus obtained was examined for virus density using a Virononstika HIV-1 Antigen Microelisa system kit (bioMerieux, Inc. Netherland).
2. Assay for Inhibitory Activity Against HIV
The rhodanine derivatives prepared in Examples 1 to 38 were dissolved in DMSO to prepare respective 10 mM or 20 mM stocks, and stored at −20° C. The stocks were diluted to a starting concentration of 200 μM in DMSO before use in experiments.
MT-4 cells were suspended at a density of 4×10^5 cells in 200 μL of RPMI 1640 (Gibco, 10% FBS) per well of 24-well plates, and infected with 200 μL of a virus supernatant containing 2×10^5 pg/mL to give a total volume of 400 μL. After the stocks of the rhodanine derivatives were […] diluted to 200 μM in DMSO, 2 μL of each dilution was added to the cells to a final concentration of 1 μM or less. For a positive control, 10 μM AZT (azidothymidine, Sigma, USA) was used at a final concentration of 50 nM while DMSO was used at a final concentration of 0.5% as a negative control. The cells were cultured for 48 hrs in a CO2 incubator (37° C., 5% CO2), and the culture medium was replaced by RPMI 1640 containing the rhodanine derivative at a final concentration of 1 μM, followed by incubation for an additional 48 hrs. Virus soups were separated from cells by centrifugation at 1,500 rpm for 5 min and then at 13, 000 rpm for 5 min. ELISA for p24 concentrations was carried out using a Virononstika HIV-1 Antigen Microelisa system kit (bioMerieux, Inc. Netherland) to determine the inhibitory activity of each of the rhodanine derivatives against HIV.
In the case of `Cc1ccc(N2C(=O)/C(=C/c3ccc(-c4cccc([N+](=O)[O-])c4)o3)SC2=S)c(C)c1` [Example 1, 3-(2,4-Dimethyl-phenyl)-5-[5-(3-nitro-phenyl)-furan-2-ylmethylene]-2-thioxo-thiazolidin-4-one], the IC50 came to 800 nM.

For `CC(=O)CCN1C(=O)/C(=C/c2ccc(-c3ccc(Br)cc3)o2)SC1=S` [Example 5, 5-[5-(4-bromo-phenyl)-furan-2-ylmethylene]-3-(3-oxo-butyl)-2-thioxo-thiazolidin-4-one], the IC50 stood at 1000 nM.

For the compound `O=C1/C(=C/c2ccc(-c3ccc(Cl)cc3Cl)o2)SC(=S)N1c1cccc(F)c1` [Example 8, 5-[5-(2,4-dichloro-phenyl)-furan-2-ylmethylene]-3-(3-fluoro-phenyl)-2-thioxo-thiazolidin-4-one], the IC50 is 500 nM.

`O=C1C(=Cc2ccc(-c3ccc([N+](=O)[O-])cc3)o2)SC(=S)N1c1cccc(F)c1` [Example 13, 3-(3-fluoro-phenyl)-5-[5-(4-nitro-phenyl)-furan-2-ylmethylene]-2-thioxo-thiazolidin-4-one]: the half-inhibitory concentration (IC50) came out at 500 nM.

As for `O=C1C(=Cc2ccc(-c3cc([N+](=O)[O-])ccc3Br)o2)SC(=S)N1c1ccc(I)cc1` [Example 16, 5-[5-(2-bromo-5-nitro-phenyl)-furan-2-ylmethylene]-3-(4-iodo-phenyl)-2-thioxo-thiazolidin-4-one], the half-maximal inhibitory concentration (IC50) is 500 nM.

Consider `COc1ccc(-c2ccc(/C=C3\SC(=S)N(CC(=O)O)C3=O)o2)c([N+](=O)[O-])c1` [Example 21, {5-[5-(4-methoxy-2-nitro-phenyl)-furan-2-ylmethylene]-4-oxo-2-thioxo-thiazolidin-3-yl}-acetic acid], for which the half-inhibitory concentration (IC50) stood at 1000 nM.

As to `CC(C)OC(=O)c1ccc(-c2ccc(/C=C3/SC(=S)NC3=O)o2)cc1` [Example 23, 4-[5-(4-oxo-2-thioxo-thiazolidin-5-ylidenemethyl)-furan-2-yl]-benzoic acid isopropylester], the half-inhibitory concentration (IC50) was 400 nM.

For the compound `CCCOC(=O)c1cc(-c2ccc(/C=C3/SC(=S)NC3=O)o2)ccc1Cl` [Example 29, 2-chloro-5-[5-(4-oxo-2-thioxo-thiazolidin-5-ylidenemethyl)-furan-2-yl]-benzoic acid propyl ester], the IC50 is 500 nM.

In the case of `O=C(O)CN1C(=O)/C(=C/c2ccc(-c3cccc([N+](=O)[O-])c3)o2)SC1=S` [Example 38, {5-[5-(3-nitro-phenyl)-furan-2-ylmethylene]-4-oxo-2-thioxo-thiazolidin-3-yl}-acetic acid], the concentration for half-maximal inhibition (IC50) was 750 nM.

Values taken from patent US8759536B2, “Rhodanine derivatives, method for preparing same, and pharmaceutical composition for the prevention or treatment of aids containing the rhodanine derivatives as active ingredients” (Avixgen Inc., priority 2010, dated 2014).
